Structures can show the parent of a compound that is named as a salt.
Key:
GABAA receptors = assay: inhibition of [35S]-TBPS binding to rat whole brain membranes; settings: concentration required to inhibit 50% of [35S]-TBPS binding
Excerpt: γ-Aminobutyric acid (GABA) is the major inhibitory neurotransmitter within the central nervous system and it is probable that compounds potentiating the effects of GABA at GABAA receptors will induce anaesthesia (S. A. Zimmerman, M. V. Jones and N. L. Harrison, J. Pharmacol. Exp. Therap. 1994, 270, 987-991; N. P. Franks and W. R. Lieb, Nature 1994, 367, 607-614). Indeed there is compelling evidence that many hypnotics exert their biological activity via modulation of GABAA receptors, including steroids, barbiturates, benzodiazepines and propofol (D. L. Tanelian, P. Kosek, I. Mody and M. B. Maclver, Anesthesiology 1993, 78, 757-776).
The in vitro effect of the compounds of the invention at GABAA receptors was assessed through determination of their ability to inhibit [^35S]-TBPS ([^35S]-tert-butyl bicyclophosphorothionate) binding to rat whole brain membranes. The concentration of α-amino acid phenyl ester derivative required to inhibit 50% of binding of [^35S]-TBPS was determined. These in vitro experiments were carried out as described in detail by Anderson et al., J.Med.Chem. 1997, 40, 1668-1681.

mice = assay: hypnotic activity: loss of righting reflex after intravenous administration in mice; assay type: in vivo; settings: dose causing loss of righting reflex for minimum 30 seconds in 50% of mice, intravenous injection over 10 seconds; for ED50: Mus musculus, iv, read-out: HD50 (the source's name)
Procedure: The hypnotic potency of the α-amino acid phenyl ester derivatives of the invention was determined upon their intravenous administration in mice. The dose required to cause a loss of righting reflex for a minimum period of 30 seconds in 50% of treated mice after intravenous injection over 10 seconds was determined. This dose is termed the HD50 (hypnotic dose50) and is expressed in μmol.kg^−1.

Compound | IC50 (GABAA receptors) [µM] | ED50 (mice) [µmol/kg] | HD50 (mice)
COc1cccc(OC)c1OC(=O)C(C)N1CCOCC1 (stereo not shown) [Reference, 2,6-dimethoxyphenyl 2-morpholinopropionate, reference compound] | 766 | 139 | –
COCCN(CCOC)C(C(=O)Oc1c(OC)cccc1OC)C(C)C (racemic) [Example 7u, (±)-3-methyl-2-[N-bis(2-methoxyethyl)amino]butyric acid, 2,6-dimethoxyphenyl ester hydrochloride (1:1) salt] | 100 | 27 | –
CCC(C(=O)Oc1c(OC)cccc1OC)N(C)Cc1ccccc1 (racemic) [Example 7k, (±)-2-[N-methylbenzylamino]butyric acid, 2,6-dimethoxyphenyl ester hydrochloride (1:1) salt] | 13 | 40 | –
COc1cc(C)cc(OC)c1OC(=O)[C@@H](C)N(C)Cc1ccccc1 [Example 7h, R-(+)-2-[N-methylbenzylamino]propionic acid, 2,6-dimethoxy-4-methylphenyl ester hydrochloride (1:1) salt] | 27 | 56 | –
CCC(C(=O)Oc1c(OC)cc(OC)cc1OC)N(CCOC)CCOC (racemic) [Example 7t, (±)-2-[N-bis(2-methoxyethyl)amino]butyric acid, 2,4,6-trimethoxyphenyl ester hydrochloride (1:1) salt] | 14 | 21 | –
COCCN(CCOC)C(C)C(=O)Oc1c(OC)cc(C)cc1OC (racemic) [Example 7e, (±)-2-[N-bis(2-methoxyethyl)amino]propionic acid, 2,6-dimethoxy-4-methylphenyl ester hydrochloride (1:1) salt] | < 100 | 52 | –
CCOCCN(CCOCC)C(C)C(=O)Oc1c(OC)cccc1OC (racemic) [Example 7d, (±)-2-[N-bis(2-ethoxyethyl)amino]propionic acid, 2,6-dimethoxyphenyl ester hydrochloride (1:1) salt] | ≤ 100 | 68 | –
COCCN(CCOC)[C@H](C)C(=O)Oc1c(OC)cc(C)cc1OC [Example 7y, R-(+)-2-[N-bis(2-methoxyethyl)amino]propionic acid, 2,6-dimethoxy-4-methylphenyl ester hydrochloride (1:1) salt] | < 100 | 18 | –
COc1cccc(OC)c1OC(=O)C(C)N(C)CCc1ccccc1 (stereo not shown) [Example 7m, 2-[N-methylphenethylamino]propionic acid, 2,6-dimethoxyphenyl ester hydrochloride (1:1) salt] | 59 | 38 | –
CCC(C(=O)Oc1c(OC)cccc1OC)N(CCOC)CCOC (racemic) [Example 7c, (±)-2-[N-bis(2-methoxyethyl)amino]butyric acid, 2,6-dimethoxyphenyl ester hydrochloride (1:1) salt] | 10 | 19 | –
COCCN(C)C(C)C(=O)Oc1c(OC)cccc1OC.Cl (stereo not shown) [Example 7p, 2-[N-methyl-(2-methoxy)ethylamino]propionic acid, 2,6-dimethoxyphenyl ester hydrochloride (1:1) salt] | ~100 | – | 72 µmol/kg
CCCC(C(=O)Oc1c(OC)cccc1OC)N(CCOC)CCOC (racemic) [Example 7s, (±)-2-[N-bis(2-methoxyethyl)amino]pentanoic acid, 2,6-dimethoxyphenyl ester hydrochloride (1:1) salt] | 4.2 | 12 | –
CC[C@@H](C(=O)Oc1c(OC)cc(C)cc1OC)N(CCOC)CCOC [Example 7v, S-(−)-2-[N-bis(2-methoxyethyl)amino]butyric acid, 2,6-dimethoxy-4-methylphenyl ester hydrochloride (1:1) salt] | 14 | 35 | –
CCCCC(C(=O)Oc1c(OC)cccc1OC)N(CCOC)CCOC.Cl (stereo not shown) [Example 7ah, ξ-2-[N-bis(2-methoxyethyl)amino]hexanoic acid, 2,6-dimethoxyphenyl ester hydrochloride (1:1) salt] | – | – | 8 µmol/kg
CCOCCN(CCOCC)C(CC)C(=O)Oc1c(OC)cccc1OC (racemic) [Example 7l, (±)-2-[N-bis(2-ethoxyethyl)amino]butyric acid, 2,6-dimethoxyphenyl ester hydrochloride (1:1) salt] | ~100 | – | –
CCC(C(=O)Oc1c(OC)cc(C)cc1OC)N(CCOC)CCOC (racemic) [Example 7b, (±)-2-[N-bis(2-methoxyethyl)amino]butyric acid, 2,6-dimethoxy-4-methylphenyl ester hydrochloride (1:1) salt] | 18 | 22 | –

Compound | IC50 (GABAA receptors) [µM] | ED50 (mice) [µmol/kg] | HD50 (mice)
COc1cc(C)cc(OC)c1OC(=O)C(C)N(C)Cc1ccccc1 (racemic) [Example 7g, (±)-2-[N-methylbenzylamino]propionic acid, 2,6-dimethoxy-4-methylphenyl ester hydrochloride (1:1) salt] | 22 | 45 | –
CCOCCN(CCOCC)[C@H](CC)C(=O)Oc1c(OC)cccc1OC [Example 7z, R-(+)-2-[N-bis(2-ethoxyethyl)amino]butyric acid, 2,6-dimethoxyphenyl ester hydrochloride (1:1) salt] | 18 | 19 | –
CCOCCN(CCOCC)C(C)C(=O)Oc1c(OC)cccc1OC (single isomer, unassigned; (+)) [Example 7w, (+)-2-[N-bis(2-ethoxyethyl)amino]propionic acid, 2,6-dimethoxyphenyl ester hydrochloride (1:1) salt] | ~100 | – | 35 µmol/kg
COCCN(C)C(CC(C)C)C(=O)Oc1c(OC)cc(C)cc1OC.Cl (racemic) [Example 7ak, (±)-2-[N-(2-methoxyethyl)-N-methylamino]-4-methylpentanoic acid, 2,6-dimethoxy-4-methylphenylester hydrochloride (1:1) salt] | – | – | 28 µmol/kg
(±)-2-[N-bis(2-methoxyethyl amino]-3-methylbutyric acid, 2,6-dimethoxy-4-methylphenylester hydrochloride (1:1) salt [Example 7al] | – | – | 44 µmol/kg
CCCCC(C(=O)Oc1c(OC)cc(C)cc1OC)N(CCOC)CCOC.Cl (racemic) [Example 7ag, (±)-2-[N-bis(2-methoxyethyl)amino]hexanoic acid, 2,6-dimethoxy-4-methylphenyl ester hydrochloride (1:1) salt] | – | – | 34 µmol/kg
CCOc1cccc(OCC)c1OC(=O)C(CC)N(CCOC)CCOC (racemic) [Example 7n, (±)-2-[N-bis(2-methoxyethyl)amino]butyric acid, 2,6-diethoxyphenyl ester hydrochloride (1:1) salt] | 20 | 27 | –
CCOCCN(CCOCC)C(C)C(=O)Oc1c(OC)cccc1OC (single isomer, unassigned; (-)) [Example 7x, (−)-2-[N-bis(2-ethoxyethyl)amino]propionic acid, 2,6-dimethoxyphenyl ester hydrochloride (1:1) salt] | < 100 | – | 46 µmol/kg
CCC(C(=O)Oc1c(OC)cccc1OC)N(CC(C)OC)CC(C)OC.Cl (racemic) [Example 7ae, (±)-2-[N-bis(2-methoxypropyl)amino]butyric acid, 2,6-dimethoxyphenyl ester hydrochloride (1:1) salt] | – | – | 27 µmol/kg
COCCN(CCOC)C(C)C(=O)Oc1c(OC)cccc1OC (racemic) [Example 7f, (±)-2-[N-bis(2-methoxyethyl)amino]propionic acid, 2,6-dimethoxyphenyl ester hydrochloride (1:1) salt] | < 100 | 55 | –
CCC(C(=O)Oc1c(OC(C)C)cccc1OC(C)C)N(CCOC)CCOC (racemic) [Example 7o, (±)-2-[N-bis(2-methoxyethyl)amino]butyric acid, 2,6-di-(1-methyl)ethoxyphenyl ester hydrochloride (1:1) salt] | < 100 | 64 | –
CCCCC(C(=O)Oc1c(OC)cccc1OC)N(CCOC)CCOC.Cl (racemic) [Example 7ad, (±)-2-[N-bis(2-methoxyethyl)amino]hexanoic acid, 2,6-dimethoxyphenyl ester hydrochloride (1:1) salt] | – | – | <12 µmol/kg
CCCCC(C(=O)Oc1c(OC)cccc1OC)N(CCOC)CCOC.Cl (stereo not shown) [Example 7ai, ξ-2-[N-bis(2-methoxyethyl)amino]hexanoic acid, 2,6-dimethoxyphenyl ester hydrochloride (1:1) salt] | – | – | 47 µmol/kg
COCCN(CCOC)C(CC(C)C)C(=O)Oc1c(OC)cc(C)cc1OC.Cl (racemic) [Example 7aj, (±)-2-[N-bis(2-methoxyethyl)amino]4-methylpentanoic acid, 2,6-dimethoxy-4-methylphenylester hydrochloride (1:1) salt] | – | – | convulsant
CCCC(C(=O)Oc1c(OC)cc(C)cc1OC)N(CCOC)CCOC.Cl (racemic) [Example 7af, (±)-2-[N-bis(2-methoxyethyl)amino]pentanoic acid, 2,6-dimethoxy-4-methylphenyl ester hydrochloride (1:1) salt] | – | – | 34 µmol/kg

Reference: patent US6451854B1, “α-amino acid phenyl ester derivatives” (Akzo Nobel N.V., priority 1998, dated 2002)
